Five molecules from US4251524A (priority 1976, dated 1981) can be followed below.

In the experiment the test system is Klebsiella pneumoniae; Enterobacter aerogenes sp.; Providencia; Serratia marcescens; E. coli BE; Salmonella sp.; Shigella sp.; Proteus, indole-negative and …. It is filed as cell-based. Particulars: 100 μg/ml, Muller-Hinton nutrient broth with 0.1% glucose, 1×10^5 to 2×10^5 bacteria per ml, 24 hours; all listed cultures.

On to `CC1(C)S[C@@H]2[C@H](NC(=O)[C@H](NC(=O)N3CCN(N=Cc4ccc(Cl)cc4)C3=O)c3ccccc3)C(=O)N2[C@H]1C(=O)O` [Example 2.3, sodium 6-{D-α-[(2-oxo-3-{4-chloro}-benzalimino-imidazolidin-1-yl)-carbonylamino]-phenylacetamido}-penicillanate], for which the “freedom from turbidity of bacterial cultures (indicates action)” value (from here on “freedom from turbidity”) is listed as “free from turbidity”.

On to `COC1(NC(=O)[C@H](NC(=O)N2CCN(N=Cc3ccco3)C2=O)c2ccccc2)C(=O)N2C(C(=O)O)=C(COC(C)=O)CS[C@@H]21` (some centres unmarked) [Example 36.5], for which the “freedom from turbidity” value is given as “free from turbidity”. For `CC1(C)S[C@@H]2[C@H](NC(=O)[C@H](NC(=O)N3CCN(N=Cc4ccccc4)C3=O)c3ccccc3)C(=O)N2[C@H]1C(=O)O` [Example 1.3, sodium 6-{D-α-[(2-oxo-3-benzalimino-imidazolidin-1yl)-carbonylamino]phenylacetamido}-penicillanate], the “freedom from turbidity” value is given as “free from turbidity”. For `CC=CC=NN1CCN(C(=O)N[C@@H](C(=O)N[C@]2(OC)C(=O)N3C(C(=O)O)=C(COC(C)=O)CS[C@@H]32)c2ccccc2)C1=O` [Example 36, 7-methoxy-7-{D-α-[(2-oxo-3-but-2-enylideneamino-imidazolidin-1-yl)-carbonylamino]-phenylacetamido}-3-acetoxymethyl-ceph-3-em-4-carboxylic acid] the value was “free from turbidity”; for `CC1(C)S[C@@H]2[C@H](NC(=O)[C@H](NC(=O)N3CCN(N=Cc4ccc(Cl)cc4)C3=O)C3=CCC=CC3)C(=O)N2[C@H]1C(=O)O` [Example 2.4, sodium 6-{D-α-[(2-oxo-3-{4-chloro}-benzalimino-imidazolidin-1-yl)-carbonylamino]-cyclohex-1,4-dien-1-yl-acetamido}-penicillanate], “free from turbidity”.
